Measured values published in ChEMBL document CHEMBL1144316, “Synthesis and biological activity evaluation of lignan lactones derived from (-)-cubebin” (2005).

System: Rattus norvegicus
Experiment: Percentage inhibition of edema formation in rat after 3 hours of treatment with the compound at a dosage of 30 mg/Kg
Format: functional

O=C1OC[C@@H](Cc2cc3c(cc2[N+](=O)[O-])OCO3)[C@@H]1Cc1cc2c(cc1[N+](=O)[O-])OCO2
inhibition in vivo at 30 mg/kg: 54%

O=C1OC[C@@H](Cc2ccc3c(c2)OCO3)[C@@H]1Cc1ccc2c(c1)OCO2
inhibition in vivo at 30 mg/kg: 63%

Nc1cc2c(cc1C[C@@H]1COC(=O)[C@H]1Cc1cc3c(cc1N)OCO3)OCO2
inhibition in vivo at 30 mg/kg: 82%

OC1OC[C@@H](Cc2ccc3c(c2)OCO3)[C@@H]1Cc1ccc2c(c1)OCO2 (some centres undefined)
inhibition in vivo at 30 mg/kg: 53%
